Measured values: US20250381256A1 (priority 2022, published 2025)
“Also recorded” adds a separate entry of the source. Square brackets hold non-standard residues; d marks the D form. Ends that are not written are not given here. Cha = N[C@@H](CC1CCCCC1)C(=O)O

What was measured:
[1] = test system: CFT073 uropathogenic E. coli; test: Transurethral infection model with CFT073; conditions: 5×10^7 CFU CFT073, vs control OVA vaccine
Experimental: Bacterial Culture and Challenge Model. The uropathogenic E. coli strain CFT073 was purchased from ATCC (700928); this strain was originally isolated from a pyelonephritis patient. CFT073 was cultured at 37° C. with aeration in Luria broth (10 g/L tryptone, 5 g/L yeast extract, 10 g/L sodium chloride) at a 1:100 dilution from a starter culture.
For the transurethral infection model, water supply was removed from cages for one hour prior to infection to allow for voiding of bladder. Mice were sedated with an i.p. injection of a ketamine/xylazine cocktail and a sterilized plastic needle dabbed in surgical lubricant was used to deliver 5×10^7 CFU of CFT073 into the urethra. Mice were monitored as for the bacteremia model, but with sacrifice at 48 h.

[2] = test system: gut microbiome; test: Microbiome analysis of fecal pellets (16S rRNA sequencing); format: in vivo, C57BL/6 mice
Experimental: Microbiome Analysis. Fecal pellets were collected from mice and immediately frozen on dry ice prior to storage at −80° C. Samples were submitted to the Duke Center for Genomic and Computational Biology Microbiome Shared Resource core for microbiome analyses. In brief, the Duke Microbiome Core Facility (MCF) extracted DNA using the Qiagen PowerSoilPro DNA Kit (Qiagen, 47014). Bacterial community composition in isolated DNA samples was characterized by amplification of the V4 variable region of the 16S rRNA gene by polymerase chain reaction using the forward primer 515 and reverse primer 806 following the Earth Microbiome Project protocol (http://www.earthmicrobiome.org/). These primers (515F and 806R) carry unique barcodes that allow for multiplexed sequencing. Concentration of the PCR products were accessed using a Qubit dsDNA HS assay kit (ThermoFisher, Q32854) and a Promega GloMax plate reader. Equimolar 16S rRNA PCR products from all samples were pooled prior to sequencing, which was performed by the Duke Sequencing and Genomic Technologies (SGT) shared resource on an Illumina MiSeq instrument configured for 250 base-pair paired-end sequencing runs.
Sequences were analyzed using QIIME2 software. Demultiplexed forward reads were assigned a cut off between 10-230 bp and reverse reads were assigned a cut off between 10-160 bp. […]

[3] = test system: 1:1:1 mixture of plreA, plutA, and plroN; test: Urinary antibody ELISA on undiluted urine of immunized mice; conditions: one nanofiber and three nanofiber groups combined
Experimental: Animals and Immunizations. […] Murine immunizations were initiated with female C57BL/6 mice (Envigo) aged 9-12 weeks. For sublingual immunizations, mice were deeply anesthetized by a cocktail delivering 100 mg/kg ketamine and 10 mg/kg xylazine. For droplet immunizations, a micropipette with a 20 μL tip was used to apply 8 μL of the immunizing solution below the tongue. For tablet immunizations, the tablet was placed below the tongue of anesthetized mice using tweezers. For droplet and tablet immunizations, the mouse's heads were placed in anteflexion for 20 min following administration to prevent swallowing of the material.
Measurement of Antibody Responses. Serum was collected via the submandibular vein. For analysis of epitope-specific IgG by ELISA, plates were coated with 20 μg/mL of streptavidin (Millipore Sigma, 189730) overnight at 4° C. Plates were washed with 0.5 g/L Tween-20 in PBS (1×PBST), coated for 1 hour with 20 μg/mL biotinylated plreA, pluta, or plroN, and blocked with Super Block Blocking Buffer (Thermo Scientific, 37515). […] Sera diluted in PBST-BSA or undiluted urine were added to the plate, and antigen-specific IgG was detected by horseradish peroxidase (HRP) conjugated Fcγ fragment specific goat anti-mouse IgG (Jackson Immuno Research, 15-035-071). […]

[4] = test system: OVA323-339; test: Anti-OVA antibody responses after sublingual nanofiber immunization of mice; format: in vivo
[5] = target: T1, I-Ab (Mus musculus, UniProt P14434+P14483); conditions: haplotype of C57BL/6 mice; read-out: Reported affinity for I-Ab; cited from earlier work
T1 sequence (P14434 24-256): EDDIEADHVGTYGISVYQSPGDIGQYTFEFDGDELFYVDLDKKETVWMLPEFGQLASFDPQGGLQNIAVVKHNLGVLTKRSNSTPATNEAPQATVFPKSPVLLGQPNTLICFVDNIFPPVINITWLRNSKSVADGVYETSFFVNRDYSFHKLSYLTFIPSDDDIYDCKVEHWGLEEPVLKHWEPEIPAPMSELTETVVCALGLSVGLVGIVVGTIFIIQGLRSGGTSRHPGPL
T1 sequence (P14483 28-265): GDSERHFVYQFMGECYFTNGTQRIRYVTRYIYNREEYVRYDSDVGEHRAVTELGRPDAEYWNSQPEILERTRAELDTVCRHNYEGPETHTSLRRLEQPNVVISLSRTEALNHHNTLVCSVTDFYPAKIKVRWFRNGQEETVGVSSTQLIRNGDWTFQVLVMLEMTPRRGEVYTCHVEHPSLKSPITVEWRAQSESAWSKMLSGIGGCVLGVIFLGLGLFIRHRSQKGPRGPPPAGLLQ

[6] = Nanofiber structure after freeze-drying, tabletization and dissolution (atomic force microscopy); format: physicochemical; conditions: various levels of cryoprotectant sugars
Experimental: FIG. 16. SIMPL tablets incorporating Coil29-based nanofibers. Top panel: epitope-containing peptide nanofibers were assembled in buffer, then cryoprotectant sugars were added, and tablets were formed by freeze drying. Bottom panel: Tablets were stable enough for handling (left), and Coil29 nanofibers retained their structure after freeze-drying, tabletization, and dissolution (images by atomic force microscopy).

## C[C@@H]1O[C@@H]1P(=O)(O)O [Fosfomycin]
[1]
  Body temperature after transurethral challenge: maintained significantly higher temperatures than mice given the control vaccine
[2]; week 13 (vaccine) or week 13.5 (after 3 daily doses of 1000 mg/kg Fosfomycin)
  OTU richness of the microbiome: drastically reduced
[2]; week 13 (vaccine) or week 13.5 (antibiotic)
  Shannon diversity index (α-diversity): highly significantly different from these groups

## Nc1ncnc2c1ncn2[C@@H]1O[C@@H]2COP(=O)(O)O[C@H]3[C@@H](O)[C@H](n4cnc5c(N)ncnc54)O[C@@H]3COP(=O)(O)O[C@H]2[C@H]1O [cyclic-di-AMP]
[3]; cyclic-di-AMP vs CTB (p=0.038)
  Epitope-specific IgA levels in the urine, adjuvant comparison: significantly higher epitope-specific IgA levels in the urine than CTB
[3]; cyclic-di-AMP vs CTB (p=0.38)
  Epitope-specific IgG levels in the urine, adjuvant comparison: did not differ significantly
[4]; 1 μg c-di-AMP with 8 μL of 5 mM OVA-Coil29, sublingual
  Serum IgG titers at reduced adjuvant dose: equivalent titers to 10 times that dose; also recorded: sufficient to raise strong titers

## PADRE ([dA]K[Cha]VAAWTLKA[dA]) [aKXVAAWTLKAa]
[5]
  Kd: 94 nM

## QARILEADAEILRAYARILEAHAEILRAQ (Ac-QARILEADAEILRAYARILEAHAEILRAQ-NH2) [Coil29]
[6]
  Nanofibrillar structure in tablets: retained their nanofibrillar structure
[4]; SIMPL tablets, range of peptide and cryoprotectant sugar concentrations, 10 μg c-di-AMP
  Sublingual immunogenicity after tabletization: sublingually immunogenic
[4]; mouse models, Coil29 nanofibers, liquid formulations
  Sublingual immunogenicity: did not depend on PASylation for immunogenicity

## QLVFNSISARALKAY [VAC]
[5]
  Kd: 13.5 nM
